Measurements from PMC9962735, “Synthesis and Cytotoxic Activity of the Derivatives of N-(Purin-6-yl)aminopolymethylene Carboxylic Acids and Related Compounds” (Molecules, 2023).
Values belong to the molecule of their own block, whether it stands above or below them.

Key:
[1] = tested on: A549 human non-small-cell lung carcinoma; assay: MTT cytotoxicity assay, A549; type: cell-based; details: Homo sapiens, A549, 72 h, A549, 72 h incubation, MTT, n = 3 (Table 3)
Description: (§1) The cytotoxicity of the test compounds was studied using the MTT assay against a number of cell lines: CT-26 murine colon carcinoma, 4T1 murine mammary carcinoma, MDA-MB-231 human breast adenocarcinoma, COLO201 human colorectal adenocarcinoma, HepG2 human hepatocellular carcinoma, A549 human non-small-cell lung carcinoma, SK-BR-3 human breast adenocarcinoma, SNU-1 human gastric carcinoma, Jurkat human acute T-lymphoblastic leukemia, and WI-38 human lung fibroblasts (normal cells). Doxorubicin (Dox) was used as a reference drug. Cells were incubated with test compounds for 72 h.
(§2) Cells were seeded in flat-bottomed 96-well plates at 10,000 cells per well (for A549, SNU-1, WI-38, CT-26, MDA-MB-231, 4T1, and HepG2 cells) or 20,000 cells per well (for SK-BR-3, Jurkat, and COLO201 cells) and cultivated in complete culture mediums (for composition of each medium, see the Supplementary Materials, Table S1) in a CO2 incubator at 37 °C. At the first stage of this study, the test compounds dissolved in DMSO were added to the wells with cells at final concentrations from 1 × 10^–4 to 1 × 10^–10 mol/L (A549, SK-BR-3, SNU-1, Jurkat, and WI-38) or 1 × 10^–3 to 1 × 10^–8 mol/L (CT-26, MDA-MB-231, 4T1, COLO201, and HepG2); DMSO concentration in the wells was finally 1%. A complete cultural medium and DMSO were added to the control wells at the same concentration as in the experimental wells; 0.1% Triton X-100 solution (10 µL) was added to the corresponding wells as a non-specific positive control. After adding the test compounds, the cells were incubated for 72 h in an atmosphere containing 5% CO2. After that, the nutrient medium was removed from each well (in the case of SK-BR-3, Jurkat, and COLO201, plates were pre-centrifuged at 1500 rpm for 6 min). A solution of the commercial anticancer agent Doxorubicin (Dox, Sigma-Aldrich, St. Louis, MO, USA) in DMSO was used as a reference drug. Then, 150 µL of a complete medium with the MTT reagent (PanEco, Moscow, Russia) at a concentration of 0.5 mg/mL was added and incubated for 2 h. Formazan crystals were dissolved in DMSO (200 µL) and the absorbance in the wells was measured at 540 nm and a reference wavelength of 650 nm (Sunrise, Tecan, Groding, Austria). Experiments were performed in three parallel runs. Cell viability after incubation in the presence of test compounds was calculated in relation to cell viability in the control wells according to the Formula (1):Cell viability (%) = (Aexp/Ac) × 100,(1) where Aexp is the optical density of solutions in the wells containing test compounds; Ac is the optical density of solutions in control wells without test compounds. For detailed information on cell viability of various cell lines, see the Supplementary Materials, Figures S21–S26.
(§3) At the second stage of this study, in order to more accurately calculate the CC50 (the half maximal inhibitory concentration), the cytotoxic effect of test compounds was evaluated at concentrations close to CC50 found at the first stage. The study of the cytotoxic activity of each substance towards the cells of each line was carried out in triplicate; the mean value was used to calculate CC50. The CC50 values were determined by non-linear regression analysis using Graph-Pad Prism7.

[2] = tested on: SNU-1 human gastric carcinoma; assay: MTT cytotoxicity assay, SNU-1; type: cell-based; details: Homo sapiens, SNU1, 72 h, SNU-1, 72 h incubation, MTT, n = 3 (Table 3)
Description: as §1, §2, §3

[3] = tested on: SK-BR-3 human breast adenocarcinoma; assay: MTT cytotoxicity assay, SK-BR-3; type: cell-based; details: Homo sapiens, SK-BR-3, 72 h, SK-BR-3, 72 h incubation, MTT, n = 3 (Table 3)
Description: as §1, §2, §3

[4] = tested on: A549, SK-BR-3, SNU-1, Jurkat, WI-38 cell lines; assay: MTT cytotoxicity assay, cell line panel (result in words); type: cell-based, human; details: 72 h
Description: as §1
The cytotoxicity of compounds 2a–c, 6, 7, and 9 was also studied using the MTT assay against a number of tumor cell lines: A549, SK-BR-3, SNU-1, Jurkat, as well as normal fibroblasts WI-38 (Table 3).
as §2, §3

[5] = tested on: Jurkat human acute T-lymphoblastic leukemia; assay: MTT cytotoxicity assay, Jurkat; type: cell-based; details: Homo sapiens, Jurkat, 72 h, 72 h incubation, MTT, n = 3 (Table 3)
Description: as §1, §2, §3

[6] = MTT cytotoxicity assay, WI-38 normal cells; type: cell-based; details: human, WI-38 lung fibroblasts (normal cells), WI-38, 72 h incubation, MTT, n = 3 (Table 3)
Description: as §1, §2, §3

[7] = MTT cytotoxicity assay, Jurkat; type: cell-based, human; details: human, CC50 of WI-38 divided by CC50 of Jurkat (Table 3); read-out: SCI (selective cytotoxicity index)
Description: as §1, §2, §3

[8] = MTT cytotoxicity assay, A549; type: cell-based, human; details: human, CC50 of WI-38 divided by CC50 of A549 (Table 3); read-out: SCI (selective cytotoxicity index)
Description: as §1, §2, §3

[9] = MTT cytotoxicity assay, SNU-1; type: cell-based, human; details: human, CC50 of WI-38 divided by CC50 of SNU-1 (Table 3); read-out: SCI (selective cytotoxicity index)
Description: as §1, §2, §3

[10] = MTT cytotoxicity assay, SK-BR-3; type: cell-based, human; details: human, CC50 of WI-38 divided by CC50 of SK-BR-3 (Table 3); read-out: SCI (selective cytotoxicity index)
Description: as §1, §2, §3

SMILES: CC1COc2c(ccc(F)c2F)N1C(=O)CCCCCCCCC(=O)N1c2ccc(F)c(F)c2OCC1C (stereo not drawn) [Compound 9, 1,10-bis(-7,8-Difluoro-3-methyl-2H-benzo[b][1,4]oxazin-4(3H)-yl)decan-1,10-dione]
CC50 [1]: > 100 µM | CC50 [2]: > 100 µM | CC50 [3]: > 100 µM | cytotoxic activity (in words) [4]: did not exhibit cytotoxic activity | CC50 [5]: > 100 µM | CC50 at 72 h [6]: > 100 µM

melting point: 172 to 174 °C
SMILES: O=C(O)CCCCCCCCCCNc1ncnc2nc[nH]c12 [Compound 2a, N-(Purin-6-yl)-11-aminoundecanoic Acid]
CC50 [1]: > 100 µM | CC50 [2]: > 100 µM | CC50 [3]: > 100 µM | cytotoxic activity (in words) [4]: cytotoxic only against the Jurkat cell line | CC50 [5]: 59 µM | selectivity ratio at 72 h [7]: ≥ 1.7 | CC50 at 72 h [6]: > 100 µM

SMILES: C[C@H]1COc2c(ccc(F)c2F)N1C(=O)CCCCCCCCC(=O)N1c2ccc(F)c(F)c2OC[C@@H]1C [(S)-9, 1,10-bis((S)-7,8-Difluoro-3-methyl-2H-benzo[b][1,4]oxazin-4(3H)-yl)decan-1,10-dione]
CC50 [1]: > 100 µM | CC50 [2]: > 100 µM | CC50 [3]: > 100 µM | cytotoxic activity (in words) [4]: did not exhibit cytotoxic activity | CC50 [5]: > 100 µM | CC50 at 72 h [6]: > 100 µM

SMILES: COc1cccc2c1C(=O)c1c(O)c3c(c(O)c1C2=O)C[C@@](O)(C(=O)CO)C[C@@H]3O[C@H]1C[C@H](N)[C@H](O)[C@H](C)O1 [Dox, Doxorubicin, reference compound]
selectivity ratio at 72 h [8]: 1 | CC50 [1]: 0.22 µM | CC50 [2]: 0.14 µM | selectivity ratio at 72 h [9]: 1.6 | selectivity ratio at 72 h [10]: 0.15 | CC50 [3]: 1.5 µM | CC50 [5]: 0.12 µM | selectivity ratio at 72 h [7]: 1.9 | CC50 at 72 h [6]: 0.23 µM

melting point: 103 to 104 °C
SMILES: CC1COc2c(ccc(F)c2F)N1C(=O)CCCCCCCCC(=O)N1c2ccc(F)c(F)c2OCC1C (stereo not drawn) (hydrate or solvate) [Compound 9, 1,10-bis(-7,8-Difluoro-3-methyl-2H-benzo[b][1,4]oxazin-4(3H)-yl)decan-1,10-dione]

SMILES: CC1COc2c(ccc(F)c2F)N1C(=O)CNc1ncnc2[nH]cnc12 (stereo not drawn) [Compound 1a]
CC50 [1]: > 100 µM | CC50 [2]: > 100 µM | CC50 [3]: > 100 µM | cytotoxic activity (in words) [4]: non-cytotoxic | CC50 [5]: > 100 µM | CC50 at 72 h [6]: > 100 µM

melting point: 41 to 42 °C
SMILES: C[C@H]1COc2c(ccc(F)c2F)N1C(=O)CCCCCCCCC(=O)N1c2ccc(F)c(F)c2OC[C@@H]1C (hydrate or solvate) [(S)-9, 1,10-bis((S)-7,8-Difluoro-3-methyl-2H-benzo[b][1,4]oxazin-4(3H)-yl)decan-1,10-dione]

SMILES: O=C(O)CCCCCCCCCCCNc1ncnc2nc[nH]c12 [Compound 2b, N-(Purin-6-yl)-12-aminododecanoic Acid]
CC50 [1]: > 100 µM | CC50 [2]: > 100 µM | CC50 [3]: > 100 µM | cytotoxic activity (in words) [4]: cytotoxic only against the Jurkat cell line | CC50 [5]: 49 µM | CC50 at 72 h [6]: > 100 µM

SMILES: CC(=O)OCCOCn1cnc2c(NCCCCCCCCCCC(=O)N3c4ccc(F)c(F)c4OCC3C)ncnc21 (stereo not drawn) [Compound 6, {11-[9-(2-Acetoxyethoxy)methylpurin-6-yl]aminoundecanoyl]-7,8-difluoro-3,4-dihydro-3-methyl-2H-[1,4]benzoxazine]
selectivity ratio at 72 h [8]: 2 | CC50 [1]: 15 µM | CC50 [2]: 5.6 µM | selectivity ratio at 72 h [9]: 5.4 | selectivity ratio at 72 h [10]: 0.08 | CC50 [3]: 370 µM | cytotoxic activity (in words) [4]: approximately the same cytotoxicity as the most active compound 1d | CC50 [5]: 10 µM | selectivity ratio at 72 h [7]: 3 | CC50 at 72 h [6]: 30 µM

melting point: 198 to 199 °C
SMILES: O=C(O)CCCCCCCCCCCCCCNc1ncnc2nc[nH]c12 [Compound 2c, N-(Purin-6-yl)-15-aminopentadecanoic Acid]
CC50 [1]: > 100 µM | CC50 [2]: > 100 µM | CC50 [3]: > 100 µM | cytotoxic activity (in words) [4]: no cytotoxic activity | CC50 [5]: > 100 µM | CC50 at 72 h [6]: > 100 µM
